Laboratory results taken from US20120214760A1, “TREATMENT OF URINARY TRACT INFECTIONS WITH ANTIBACTERIAL AMINOGLYCOSIDE COMPOUNDS” (Achaogen, Inc., priority 2009, published 2012).
Converted amounts (≈) assume the structure as drawn. Where two headings read alike, the source gives them in different places.

Experiments:
Assay type in all cases: cell-based
M. morganii (15) = test: MIC, urinary tract infection isolates
Experimental: (§1) Minimum inhibitory concentrations (MIC) were determined by reference Clinical and Laboratory Standards Institute (CLSI) broth microdilution methods per M7-A7 [2006]. Quality control ranges utilizing E. coli ATCC 25922, P. aeruginosa ATCC 27853 and S. aureus ATCC 29213, and interpretive criteria for comparator agents were as published in CLSI M100-S17 [2007]. Briefly, serial two-fold dilutions of the test compounds were prepared at 2× concentration in Mueller Hinton Broth. The compound dilutions were mixed in 96-well assay plates in a 1:1 ratio with bacterial inoculum. The inoculum was prepared by suspension of a colony from an agar plate that was prepared the previous day. Bacteria were suspended in sterile saline and added to each assay plate to obtain a final concentration of 5×10^5 CFU/mL. The plates were incubated at 35° C. for 20 hours in ambient air.
(§2) In order to determine the activity of representative antibacterial aminoglycoside compounds against bacterial species that commonly cause complicated urinary tract infections worldwide, isolates were collected from 47 medical centers in the U.S. and Europe (10 countries) from urine or blood culture with the source of bacteremia documented as a urinary tract infection. Strains were susceptibility tested against Example 1, gentamicin, amikacin and 10 comparators by CLSI broth microdilution. These MIC assays were conducted following the same protocol as set forth in Example 110. Pathogens (169 in total) included E. coli, Klebsiella spp., Enterobacter spp., Citrobacter spp., P. mirabilis, M. Morganii, P. aeruginosa, S. aureus and S. saprophyticus.

Enterobacter spp. (16) = test: MIC, urinary tract infection isolates
Experimental: as §1, §2

Klebsiella spp. (21) = test: MIC, urinary tract infection isolates
Experimental: as §1, §2

Citrobacter spp. (15) = test: MIC, urinary tract infection isolates
Experimental: as §1, §2

S. aureus (23) = test: MIC, urinary tract infection isolates; conditions: S. aureus
Experimental: as §1, §2

P. mirabilis (20) = test: MIC, urinary tract infection isolates
Experimental: as §1, §2

S. saprophyticus (19) = test: MIC, urinary tract infection isolates; conditions: S. saprophyticus
Experimental: as §1, §2

P. aeruginosa (19) = test: MIC, urinary tract infection isolates; conditions: P. aeruginosa
Experimental: as §1, §2

E. coli (21) = test: MIC, urinary tract infection isolates
Experimental: as §1, §2

Pathogens (169 in total) = test: Susceptibility testing, all urinary tract infection isolates; conditions: all 169 isolates
Experimental: as §1, §2

[1] = tested on: S. marcescens ASMA003, ANT(2″) + AAC(6′); test: MIC, aminoglycoside resistant strain; conditions: Table 3
Experimental: as §1
(§3) These MIC assays were conducted following the same protocol as set forth in Example 110. As shown, substituted sisomicin derivatives with groups other than methyl at the 6′-position have improved activity against strains expressing the AAC6′-modifying enzymes.

[2] = tested on: E. coli AECO040, AAC(6′)-I; test: MIC, aminoglycoside resistant strain; conditions: Table 3
Experimental: as §1, §3

[3] = tested on: A. calcoaceticus AACA005, AAC(6′)-I; test: MIC, aminoglycoside resistant strain; conditions: Table 3
Experimental: as §1, §3

[4] = tested on: E. coli ATCC 25922 (AECO001); test: MIC, CLSI broth microdilution; conditions: for MIC: Escherichia coli; for MIC AECO001: Table 3
Procedure, shortened: (§4)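 CLSI M7-A7 broth microdilution; 2-fold serial dilutions in Mueller Hinton Broth, 1:1 with inoculum; final 5×10^5 CFU/mL; 35° C., 20 h, ambient air. QC strains E. coli ATCC 25922, P. aeruginosa ATCC 27853, S. aureus ATCC 29213.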

[5] = tested on: P. aeruginosa ATCC 27853 (APAE001); test: MIC, CLSI broth microdilution; conditions: Pseudomonas aeruginosa
Procedure, shortened: as §4

Question: With `CN[C@@H]1[C@@H](O)[C@@H](O[C@@H]2[C@@H](O)[C@H](O[C@H]3OC(CNCCO)=CC[C@H]3N)[C@@H](N)C[C@H]2NC(=O)[C@@H](O)CCN)OC[C@]1(C)O.O=S(=O)(O)O` [ACHN-490] as the compound, how does the “Cumulative % inhibited at ACHN-490 MIC” value (M. morganii (15); at 0.5 μg/ml) read?
Answer: Its value is 0.0%.

Question: And the “Cumulative % inhibited at ACHN-490 MIC” value (M. morganii (15); at 1 μg/ml)?
Answer: The value was 6.7%.

Question: What about the “Cumulative % inhibited at ACHN-490 MIC” value (M. morganii (15); at 2 μg/ml) of the same compound?
Answer: The value was 60.0%.

Question: What about the “Cumulative % inhibited at ACHN-490 MIC” value (M. morganii (15); at 4 μg/ml) of the same compound?
Answer: The value was 86.7%.

Question: And the “Cumulative % inhibited at ACHN-490 MIC” value (M. morganii (15); at 8 μg/ml)?
Answer: The value was 100.0%.

Question: What about the “Cumulative % inhibited at ACHN-490 MIC” value (M. morganii (15); at ≦0.25 μg/ml) of the same compound?
Answer: Its value is 0.0%.

Question: And the “Cumulative % inhibited at ACHN-490 MIC” value (Enterobacter spp. (16); at 0.5 μg/ml)?
Answer: The value was 75.0%.

Question: What about the “Cumulative % inhibited at ACHN-490 MIC” value (Enterobacter spp. (16); at 1 μg/ml) of the same compound?
Answer: The value was 100.0%.

Question: What about the “Cumulative % inhibited at ACHN-490 MIC” value (Enterobacter spp. (16); at ≦0.25 μg/ml) of the same compound?
Answer: Its value is 0.0%.

Question: What about the “Cumulative % inhibited at ACHN-490 MIC” value (Klebsiella spp. (21); at 0.5 μg/ml) of the same compound?
Answer: The value was 95.2%.

Question: What about the “Cumulative % inhibited at ACHN-490 MIC” value (Klebsiella spp. (21); at 1 μg/ml) of the same compound?
Answer: The value was 100.0%.

Question: What about the “Cumulative % inhibited at ACHN-490 MIC” value (Klebsiella spp. (21); at ≦0.25 μg/ml) of the same compound?
Answer: The value was 19.0%.

Question: What about the “Cumulative % inhibited at ACHN-490 MIC” value (Citrobacter spp. (15); at 0.5 μg/ml) of the same compound?
Answer: Its value is 73.3%.

Question: What about the “Cumulative % inhibited at ACHN-490 MIC” value (Citrobacter spp. (15); at 1 μg/ml) of the same compound?
Answer: Its value is 86.7%.

Question: And the “Cumulative % inhibited at ACHN-490 MIC” value (Citrobacter spp. (15); at 2 μg/ml)?
Answer: The value was 93.3%.

Question: What about the “Cumulative % inhibited at ACHN-490 MIC” value (Citrobacter spp. (15); at 4 μg/ml) of the same compound?
Answer: Its value is 100.0%.

Question: And the “Cumulative % inhibited at ACHN-490 MIC” value (Citrobacter spp. (15); at ≦0.25 μg/ml)?
Answer: Its value is 0.0%.

Question: What about the “Cumulative % inhibited at ACHN-490 MIC” value (S. aureus (23); at 0.5 μg/ml) of the same compound?
Answer: Its value is 13.0%.

Question: And the “Cumulative % inhibited at ACHN-490 MIC” value (S. aureus (23); at 1 μg/ml)?
Answer: The value was 60.9%.

Question: What about the “Cumulative % inhibited at ACHN-490 MIC” value (S. aureus (23); at 2 μg/ml) of the same compound?
Answer: Its value is 95.7%.

Question: And the “Cumulative % inhibited at ACHN-490 MIC” value (S. aureus (23); at 4 μg/ml)?
Answer: The value was 100.0%.

Question: What about the “Cumulative % inhibited at ACHN-490 MIC” value (S. aureus (23); at ≦0.25 μg/ml) of the same compound?
Answer: The value was 0.0%.

Question: What about the “Cumulative % inhibited at ACHN-490 MIC” value (P. mirabilis (20); at 0.5 μg/ml) of the same compound?
Answer: Its value is 0.0%.

Question: And the “Cumulative % inhibited at ACHN-490 MIC” value (P. mirabilis (20); at 1 μg/ml)?
Answer: The value was 5.0%.

Question: And the “Cumulative % inhibited at ACHN-490 MIC” value (P. mirabilis (20); at 2 μg/ml)?
Answer: Its value is 45.0%.

Question: And the “Cumulative % inhibited at ACHN-490 MIC” value (P. mirabilis (20); at 4 μg/ml)?
Answer: Its value is 90.0%.

Question: And the “Cumulative % inhibited at ACHN-490 MIC” value (P. mirabilis (20); at 8 μg/ml)?
Answer: The value was 95.0%.

Question: What about the “Cumulative % inhibited at ACHN-490 MIC” value (P. mirabilis (20); at 16 μg/ml) of the same compound?
Answer: Its value is 100.0%.

Question: What about the “Cumulative % inhibited at ACHN-490 MIC” value (P. mirabilis (20); at ≦0.25 μg/ml) of the same compound?
Answer: Its value is 0.0%.

Question: What about the “Cumulative % inhibited at ACHN-490 MIC” value (S. saprophyticus (19); at 0.5 μg/ml) of the same compound?
Answer: Its value is 94.7%.

Question: What about the “Cumulative % inhibited at ACHN-490 MIC” value (S. saprophyticus (19); at 1 μg/ml) of the same compound?
Answer: The value was 100.0%.

Question: What about the “Cumulative % inhibited at ACHN-490 MIC” value (S. saprophyticus (19); at ≦0.25 μg/ml) of the same compound?
Answer: Its value is 89.5%.

Question: And the “Cumulative % inhibited at ACHN-490 MIC” value (P. aeruginosa (19); at 0.5 μg/ml)?
Answer: The value was 0.0%.

Question: What about the “Cumulative % inhibited at ACHN-490 MIC” value (P. aeruginosa (19); at 1 μg/ml) of the same compound?
Answer: The value was 0.0%.

Question: What about the “Cumulative % inhibited at ACHN-490 MIC” value (P. aeruginosa (19); at 2 μg/ml) of the same compound?
Answer: The value was 0.0%.

Question: And the “Cumulative % inhibited at ACHN-490 MIC” value (P. aeruginosa (19); at 4 μg/ml)?
Answer: Its value is 36.8%.

Question: And the “Cumulative % inhibited at ACHN-490 MIC” value (P. aeruginosa (19); at 8 μg/ml)?
Answer: The value was 73.7%.

Question: What about the “Cumulative % inhibited at ACHN-490 MIC” value (P. aeruginosa (19); at 16 μg/ml) of the same compound?
Answer: The value was 89.5%.

Question: And the “Cumulative % inhibited at ACHN-490 MIC” value (P. aeruginosa (19); at 32 μg/ml)?
Answer: The value was 100.0%.

Question: What about the “Cumulative % inhibited at ACHN-490 MIC” value (P. aeruginosa (19); at ≦0.25 μg/ml) of the same compound?
Answer: Its value is 0.0%.

Question: And the “Cumulative % inhibited at ACHN-490 MIC” value (E. coli (21); at 0.5 μg/ml)?
Answer: Its value is 19.0%.

Question: And the “Cumulative % inhibited at ACHN-490 MIC” value (E. coli (21); at 1 μg/ml)?
Answer: The value was 61.9%.

Question: What about the “Cumulative % inhibited at ACHN-490 MIC” value (E. coli (21); at 2 μg/ml) of the same compound?
Answer: The value was 100.0%.

Question: And the “Cumulative % inhibited at ACHN-490 MIC” value (E. coli (21); at ≦0.25 μg/ml)?
Answer: The value was 0.0%.

Question: With `NCC[C@H](O)C(=O)N[C@@H]1C[C@H](N)[C@@H](O[C@H]2O[C@H](CN)[C@@H](O)[C@H](O)[C@H]2O)[C@H](O)[C@H]1O[C@H]1O[C@H](CO)[C@@H](O)[C@H](N)[C@H]1O` [Amikacin, amikacin, reference compound] as the compound, how does the Overall susceptibility rate (Pathogens (169 in total)) read?
Answer: Its Overall susceptibility rate is 94.1%.

Question: Which results are given for `CN[C@@H]1[C@@H](O)[C@@H](O[C@@H]2[C@@H](O)[C@H](O[C@H]3OC(CNCCCN)=CC[C@H]3N)[C@@H](N)C[C@H]2NC(=O)[C@@H](O)CN)OC[C@]1(C)O` [Example 17, 6′-(3-Amino-propyl)-1-(3-amino-2(S)-hydroxy-propionyl)-sisomicin]?
Answer: MIC ASMA003 [1]: 2 µg/mL (≈ 3.38 µM); MIC AECO040 [2]: 0.5 µg/mL (≈ 0.845 µM); MIC AACA005 [3]: 2 µg/mL (≈ 3.38 µM); MIC ([4]; ATCC25922, Table 2, read-out: MIC E. coli): < 1 µg/mL; MIC ([4]; Table 1, AECO001 is ATCC25922, read-out: MIC AECO001): < 1 µg/mL; MIC AECO001 ([4]; ATCC25922): 1 µg/mL (≈ 1.69 µM); MIC ([5]; ATCC27853, Table 2, read-out: MIC P. aeruginosa): 1 to 16 µg/mL (≈ 1.69 to 27 µM)

Question: For `CN[C@@H]1[C@@H](O)[C@@H](O[C@@H]2[C@@H](O)[C@H](O[C@H]3OC(CNCC4CC4)=CC[C@H]3N)[C@@H](N)C[C@H]2NC(=O)[C@@H](O)CCN)OC[C@]1(C)O` [Example 18, 6′-(Methyl-cyclopropyl)-1-(4-amino-2(S)-hydroxy-butyryl)-sisomicin], which MIC ASMA003 [1] is on record?
Answer: Its MIC ASMA003 is 4 µg/mL (≈ 6.64 µM).

Question: What about the MIC AECO040 [2] of the same compound?
Answer: Its MIC AECO040 is 0.25 µg/mL (≈ 0.415 µM).

Question: And the MIC AACA005 [3]?
Answer: Its MIC AACA005 is 2 µg/mL (≈ 3.32 µM).

Question: What about the MIC ([4]; ATCC25922, read-out: MIC AECO001, Table 1, AECO001 is ATCC25922) of the same compound?
Answer: Its MIC is less than 1 µg/mL.

Question: What about the MIC AECO001 ([4]; ATCC25922) of the same compound?
Answer: The MIC AECO001 was 1 µg/mL (≈ 1.66 µM).

Question: And the MIC ([5]; ATCC27853, read-out: MIC APAE001, Table 1, APAE001 is ATCC27853)?
Answer: The MIC was 1 to 16 µg/mL (≈ 1.66 to 26.5 µM).
